Patent publication US20250263370A1 (Tay Therapeutics Limited, priority 2022, published 2025)
Like-named read-outs stand apart in the source and are kept apart here.

Key:
[1] = target: BRD4 BD1 (Homo sapiens (Human), UniProt O60885); experiment: NanoBRET bromodomain assay, NanoLuc-BRD4-BD1 fusion in HEK293 cells; type: cell-based; settings: top concentration 10 μM
[2] = target: BRD4 BD2 (Homo sapiens (Human), UniProt O60885); experiment: NanoBRET bromodomain assay, NanoLuc-BRD4-BD2 fusion in HEK293 cells; settings: for Fold selectivity: IC50 for BRD4 BD1 divided by IC50 for BRD4 BD2, qualitative if an IC50 is at the upper limit; for IC50: BRD4 BD2 (IC50), NanoBRET, HEK293 cells, top concentration 10 μM;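 on all read-outs here: tracer displacement BRET read in transfected cells after 2 h compound exposure at 37 °C, signal in milliBRET units corrected against no-tracer background wells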
[3] = Intrinsic clearance in liver microsomes, mouse; type: in vitro ADME; settings: pH 7.4, Method 2, read-out: Half-Life (T1/2) (min), Mouse
Protocol: (§1) From stock solution of compound on 10 mM DMSO, a working solution of 0.1 mM is prepared by diluting the compound in DMSO. 6.25 μL of a 20 mg/mL solution of microsomes in PBS pH 7.4 buffer is added to 216.25 μL PBS pH 7.4 buffer (final microsome concentration—0.5 mg/mL). 25 μL of 10 mM solution of NADPH in PBS pH 7.4 buffer is added to the incubations (final NADPH concentration—1 mM). The mixture is pre-warmed to 37° C. for 10 minutes. 2.5 μL of test compound working solution is added (final compound concentration—1 μM with 1% DMSO). Aliquots of 30 μL are taken from the reaction solution at 0.5, 5, 15, 30 and 60 minutes. The reaction was stopped by the addition of 5 volumes of cold acetonitrile with IS (100 nM alprazolam, 200 nM caffeine and 100 nM tolbutamide). Samples were centrifuged at 3, 220 g for 40 minutes. Aliquots of 100 μL of the supernatant are mixed with 100 μL of ultra-pure H2O and used for LC-MS/MS analysis. The percent compound remaining at each time point is calculated with respect to that of the 0.5 min sample. The data are analysed to calculate half-life. Control experiments are run without NADPH and blank samples are prepared using DMSO without the test compound.
(§2) A 50 mM stock solution (in DMSO) is prepared for the compound. From the stock solution, a working solution of 0.5 mM is prepared by diluting the compound in DMSO. This concentration of working solution is prepared considering a final concentration of 1 uM with 0.1% DMSO. The compound (1 μL of working solution) is spiked in PBS with pH 7.4 ([…]) at a concentration of 1 μM. Subsequently, 110 μL of 10 mM NADPH is added (as a co-factor). The sample is incubated at 37° C. for 15 min. Following this, pre-warmed liver microsomes (27.5 μL; final protein conc. 0.5 mg/mL) are added. The samples are then incubated at 37° C. Aliquots of samples are withdrawn at 0, 5, 15, 30, 45 and 60 min. The reaction is stopped by using chilled acetonitrile containing internal standard. The samples are centrifuged, and the supernatants analysed by LC-MS/MS. The percent compound remaining at each time point is calculated with respect to that of the 0 min sample. The data are then analysed to calculate half-life and intrinsic clearance (CLint). Control experiments are run without NADPH and blank samples are prepared using DMSO without the test compound.

[4] = Sprague-Dawley rat pharmacokinetics, IV and PO cassette dosing; type: in vivo
Protocol: Compounds were formulated in 5% DMSO, 40% PEG-400, 55% Milli-Q water at a concentration of 0.2 mg/mL for IV and at 0.5 mg/mL for PO. Two male Sprague-Dawley rats per arm were dosed with up to 5 compounds in cassette mode, which each compound being dosed at 1 mg/kg IV and 5 mg/kg PO. Blood was sampled at various timepoints and plasma isolated. 50 μL of plasma with 5 μL of blank Sprague-Dawley rat plasma were added to 200 μL of acetonitrile containing IS mixture. The samples were vortexed for 30 s. After centrifugation at 4 degrees Celsius, 3900 rpm for 15 min, the supernatant was diluted 3 times with water. 20 μL of diluted supernatant was injected into the LC/MS/MS system for quantitative analysis and concentration of analyte determined by comparison with matrix matched standard curve. WinNonlin (Phoenix™, version 8.3) or other similar software may be used for pharmacokinetic calculations.

[5] = Intrinsic clearance in liver microsomes, rat; type: in vitro ADME; settings: rat, liver microsomes, pH 7.4, rat liver microsomes, Method 1; read-out: Half-Life (T1/2) (min), Rat
Protocol: as §1, §2

[6] = Plasma stability assay, rat plasma; type: in vitro ADME; settings: Method 2 (10 μM)
Protocol: From stock solution of compound in 10 mM DMSO, a working solution of 1 mM is prepared by diluting the compound in DMSO. To 398 μL of plasma pre-warmed at 37° C. for 15 minutes), 2 μL of working solution of compound is added, resulting in a final concentration of 5 μM (0.5% DMSO) for the compound. The sample is then incubated at 37° C. Aliquot is withdrawn at specified time-points (0, 15, 30, 60 and 120 mins). The reaction is stopped by addition of 450 μL cold acetonitrile containing internal standard (IS). […] Aliquots of the supernatant is analysed using LC-MS/MS. The percent remaining of the compound at each time point is calculated with respect to the control sample (0 min time-point).
A working solution of compound (500 μM) is prepared in DMSO (100%). To 735 μL of plasma, 15 μL of working solution of compound is added—resulting in a final concentration of 10 μM (2% DMSO) for the compound. The sample is then incubated at 37° C. Aliquot is withdrawn at time-points—0, 15, 30, 60, 90 and 120 mins. The reaction is stopped by using chilled acetonitrile containing internal standard (IS). The samples are centrifuged and the supernatants analyzed using LC-MS/MS. The percent remaining of the compound at each time point is calculated with respect to the control sample (0 min time-point).

[7] = tested on: CXCL10; experiment: CXCL10 levels by ELISA in IFN-γ stimulated human peripheral blood mononuclear cells; type: cell-based; settings: human PBMC
Protocol: The impact of Examples 23, 80, and 101 on IL-17A, IL-22, and CXCL10 levels was analyzed in cryopreserved human peripheral blood mononuclear cells (PBMC) by ELISA. […] For IL-17A and IL-22 assays, Examples 23, 80, and 101 were serially diluted from 10 mM in DMSO and further diluted in assay media to 100× the required final concentration, of which, 2 μL was added per well to a round-bottom 96-well tissue culture plate where the final DMSO concentration per well was 0.1%. CD2, CD3, and CD28 antibody-coated beads from the T-cell activation/expansion kit (Miltenyi Biotec) were added to the PBMC at a bead-to-cell ratio of 1:2.
(§3) The mixture of PBMCs and beads were seeded into the wells of the round-bottom 96-well plate at a concentration of 2×10^5 cells/well in a total volume of 200 μL. The cells were cultured for 72 hours at 37° C. and 5% CO2 and then supernatants were collected and IL-17A and IL-22 levels were measured by ELISA. For the CXCL10 assay, Examples 23, 80, and 101 were serially diluted from 10 mM in DMSO and further diluted in assay media to 100× the required final concentration, of which 2 μL was added per well to a 96-well tissue culture plate. The final compound concentration ranged from 30,000 nM to 0.005 nM and the final DMSO concentration per well was 0.3%. PBMCs were seeded at approximately 2×10^5 cells/well in the wells of the 96-well tissue culture plate in a total volume of 190 μL. The plate was incubated for 1 hour at 37° C. and 5% CO2. The cells were then stimulated with IFN-γ (15 ng/mL final concentration) in a volume of 10 μL. The cells were then cultured for 24 hours at 37° C. and 5% CO2. The supernatant was collected and CXCL10 levels were measured by ELISA.

[8] = tested on: IL-17A; experiment: IL-17A levels by ELISA in stimulated human peripheral blood mononuclear cells; type: cell-based; settings: for IC50: Homo sapiens, PBMC; for IC50 for IL-17A relative to GSK620 / Biomarker selectivity (IL-17 vs. CXCL10): human PBMC; for IC50 for IL-17A relative to GSK620: 72 hours; for Biomarker selectivity (IL-17 vs. CXCL10): from mean IC50
Protocol: (§4) CD2, CD3, and CD28 antibody-coated beads from the T-cell activation/expansion kit (Miltenyi Biotec) were added to the PBMC at a bead-to-cell ratio of 1:2.
as §3, with “For the CXCL10 assay, Examples 23, 80, and 101 were serially diluted from 10 mM in DMSO and further diluted in assay media to 100× the required final concentration, of which 2 μL was added per well to a 96-well tissue culture plate.” left out, “The cells were then stimulated with IFN-γ (15 ng/mL final concentration) in a volume of 10 μL.” left out

[9] = tested on: IL-22; experiment: IL-22 levels by ELISA in stimulated human peripheral blood mononuclear cells; type: cell-based; settings: for IC50: Homo sapiens, PBMC; for IC50 for IL-22 relative to GSK620 / Biomarker selectivity (IL-22 vs. CXCL10): human PBMC; for IC50 for IL-22 relative to GSK620: 72 hours; for Biomarker selectivity (IL-22 vs. CXCL10): from mean IC50
Protocol: as §4
as §3, with “For the CXCL10 assay, Examples 23, 80, and 101 were serially diluted from 10 mM in DMSO and further diluted in assay media to 100× the required final concentration, of which 2 μL was added per well to a 96-well tissue culture plate.” left out, “The cells were then stimulated with IFN-γ (15 ng/mL final concentration) in a volume of 10 μL.” left out

[10] = Test Subject 2, read-out: CXCL10 IC50
[11] = Test Subject 3, read-out: CXCL10 IC50
[12] = mean of test subjects, read-out: CXCL10 IC50 Mean
[13] = Test Subject 1, read-out: IL-17A IC50
[14] = Test Subject 3, read-out: IL-17A IC50
[15] = mean of test subjects, read-out: IL-17A IC50 Mean
[16] = Test Subject 2, read-out: IL-22 IC50
[17] = Test Subject 3, read-out: IL-22 IC50
[18] = mean of test subjects, read-out: IL-22 IC50 Mean

Structure (SMILES) | IC50 [1] [nM] | Fold selectivity [2] | IC50 [2] [nM] | selectivity to induction of CXCL10 relative to IL-17A and IL-22 [7] | IC50 [7, 10] [nM] | IC50 [7, 11] [nM] | IC50 [7, 12] [nM] | IC50 [8, 13] [nM] | IC50 [8, 14] [nM] | IC50 [8, 15] [nM] | IC50 for IL-17A relative to GSK620 [8] | Biomarker selectivity (IL-17 vs. CXCL10) [8] [Fold] | IC50 [9, 16] [nM] | IC50 [9, 17] [nM] | IC50 [9, 18] [nM] | IC50 for IL-22 relative to GSK620 [9] | Biomarker selectivity (IL-22 vs. CXCL10) [9] [Fold] | also measured
CNC(=O)c1[nH]c(C(=O)N[C@@H]2CC[C@@H](O)C2)cc1O[C@@H](C)c1ccccc1 (racemic) [Example 116, N^5-(trans-3-hydroxycyclopentyl)-N^2-methyl-3-((S)-1-phenylethoxy)-1H-pyrrole-2,5-dicarboxamide] | ≥ 10000 | XX (Fold >50 and ≤200) | – | – | – | – | – | – | – | – | – | – | – | – | – | – | – | half-life at 1 μM [3]: > 60 min
CNC(=O)c1[nH]c(C(=O)NC2COC2)cc1OC(C)c1ccc(Cl)cc1F (single isomer, unassigned) [Example 39, 3-(1-(4-chloro-2-fluorophenyl)ethoxy)-N^2-methyl-N^5-(oxetan-3-yl)-1H-pyrrole-2,5-dicarboxamide] | ≥ 10000 | XX (Fold >50 and ≤200) | 50 to 200 | – | – | – | – | – | – | – | – | – | – | – | – | – | – | PO F ([4]; PO 5 mg/kg, Method 1): 11%; half-life ([4]; male, Sprague-Dawley, rat, plasma, iv, 1 mg/kg, IV 1 mg/kg, Method 1, read-out: IV T1/2 (converted)): 30 min; half-life at 1 μM [5]: > 60 min; Plasma Stability (% remaining at 120 minutes), Rat [6]: 93%
CNC(=O)c1[nH]c(-c2ncc(C)[nH]2)cc1O[C@@H](C)c1ccccc1 [Example 23, (S)-N-methyl-5-(5-methyl-1H-imidazol-2-yl)-3-(1-phenylethoxy)-1H-pyrrole-2-carboxamide] | ≥ 10000 | XXX (Fold >200) | < 50 | showed selectivity to induction of CXCL10 relative to IL-17A and IL-22 | > 30000 | > 30000 | > 30000 | 104 | 53.4 | 24.5 | decreased mean IC50 | >1226 | 1.2 | 4.3 | 4.7 | decreased mean IC50 | >6429 | BRD4 BD2 % Activity Remaining @ 10 uM ([2]; 10 uM, (2) = second batch): 22%; IC50 ([8]; Test Subject 2, read-out: IL-17A IC50): 9.6 nM; IC50 ([9]; Test Subject 1, read-out: IL-22 IC50): 8.5 nM
CNC(=O)c1[nH]c(-c2cnn(C(C)C)c2)cc1O[C@@H](C)c1ccccc1 [Example 80, (S)-5-(1-isopropyl-1H-pyrazol-4-yl)-N-methyl-3-(1-phenylethoxy)-1H-pyrrole-2-carboxamide] | ≥ 10000 | XXX (Fold >200) | < 50 | showed selectivity to induction of CXCL10 relative to IL-17A and IL-22 | > 30000 | > 30000 | > 30000 | 25.1 | 187 | 106 | increased mean IC50 | >283 | 9.3 | 30.7 | 20 | decreased mean IC50 | >1500 | IC50 ([7]; Test Subject 1, read-out: CXCL10 IC50): > 30000 nM
